System: Bmi-1 protein
Assay: Sandwich ELISA Assay (Bmi-1 protein level in HT-1080 cells after compound treatment)
Assay type: cell-based
Settings: Table 1, Bmi-1 sandwich ELISA, read-out: ELISA EC50 value for Bmi-1 protein
In short: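 Sandwich ELISA quantified Bmi-1 protein against recombinant standard (125–8000 pg/mL), with lysates captured overnight at 4 °C and signal by HRP/TMB at 450 nm (570 nm reference). Lysates came from HT-1080 cells incubated 40–48 h with test compounds in 0.5% DMSO.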

Compound	EC50 [nM]
CCn1nc(C(F)(F)F)c(-c2cncc(Nc3ccc(OC(F)F)cc3)n2)c1C [compound 330, N-[4-(difluoromethoxy)phenyl]-6-[1-ethyl-5-methyl-3-(trifluoromethyl)-1H-pyrazol-4-yl]pyrazin-2-amine]	10 to 100
Cc1nc2c(F)cccc2n1-c1cncc(Nc2ccc(C(F)(F)F)cc2)n1 [compound 339, 6-(4-fluoro-2-methyl-1H-benzimidazol-1-yl)-N-[4-(trifluoromethyl)phenyl]pyrazin-2-amine]	10 to 100
Cc1nc2ccc(C(F)(F)F)cc2n1-c1cncc(Nc2ccc(C(F)(F)F)cc2)n1 [compound 340, 6-[2-methyl-6-(trifluoromethyl)-1H-benzimidazol-1-yl]-N-[4-(trifluoromethyl)phenyl]pyrazin-2-amine]	100 to 3000
Cc1nc2ccc(Cl)cc2n1-c1cc(C#N)cc(Nc2ccc(C(F)(F)F)cc2)n1 [compound 345, 2-(6-chloro-2-methyl-1H-benzimidazol-1-yl)-6-{[4-(trifluoromethyl)phenyl]amino}pyridine-4-carbonitrile]	10 to 100
N#Cc1cc(Nc2ccc(OC(F)F)cc2)nc(-c2c(C3CC3)nc3ccc(F)cn23)c1 [compound 348, 2-(2-cyclopropyl-6-fluoroimidazo[1,2-a]pyridin-3-yl)-6-{[4-(difluoromethoxy)phenyl]amino}pyridine-4-carbonitrile]	1 to 10
Cc1nc2cc(OC(F)(F)F)ccc2n1-c1cncc(Nc2ccc(C(F)(F)F)cc2)n1 [compound 356, 6-[2-methyl-5-(trifluoromethoxy)-1H-benzimidazol-1-yl]-N-[4-(trifluoromethyl)phenyl]pyrazin-2-amine]	100 to 3000
Cc1nc2ccc(OC(F)(F)F)cc2n1-c1cncc(Nc2ccc(C(F)(F)F)cc2)n1 [compound 357, 6-[2-methyl-6-(trifluoromethoxy)-1H-benzimidazol-1-yl]-N-[4-(trifluoromethyl)phenyl]pyrazin-2-amine]	100 to 3000
Cc1nc2cccc(F)c2n1-c1cncc(Nc2ccc(C(F)(F)F)cc2)n1 [compound 358, 6-(7-fluoro-2-methyl-1H-benzimidazol-1-yl)-N-[4-(trifluoromethyl)phenyl]pyrazin-2-amine]	10 to 100
Cc1nc2cc(F)c(F)cc2n1-c1cc(C#N)cc(Nc2ccc(C(F)(F)F)c(F)c2)n1 [compound 359, 2-(5,6-difluoro-2-methyl-1H-benzimidazol-1-yl)-6-{[3-fluoro-4-(trifluoromethyl)phenyl]amino}pyridine-4-carbonitrile]	100 to 3000
Cc1nc2ncc(Cl)cc2n1-c1cncc(Nc2ccc(C(F)(F)F)cc2)n1 [compound 361, 6-(6-chloro-2-methyl-1H-imidazo[4,5-b]pyridin-1-yl)-N-[4-(trifluoromethyl)phenyl]pyrazin-2-amine]	1 to 10
Nc1cc(Nc2ccc(C(F)(F)F)c(F)c2)nc(-c2c(C3CC3)nc3ccc(F)cn23)c1 [compound 364, 6-(2-cyclopropyl-6-fluoroimidazo[1,2-a]pyridin-3-yl)-N^2-[3-fluoro-4-(trifluoromethyl)phenyl]pyridine-2,4-diamine]	10 to 100
CCc1nc2cnccc2n1-c1cncc(Nc2ccc(C(F)(F)F)cc2)n1 [compound 370, 6-(2-ethyl-1H-imidazo[4,5-c]pyridin-1-yl)-N-[4-(trifluoromethyl)phenyl]pyrazin-2-amine]	100 to 3000
Cc1nc2ncncc2n1-c1cncc(Nc2ccc(C(F)(F)F)cc2)n1 [compound 371, 6-(8-methyl-7H-purin-7-yl)-N-[4-(trifluoromethyl)phenyl]pyrazin-2-amine]	100 to 3000
Cc1nc2ncc(F)cc2n1-c1cncc(Nc2ccc(C(F)(F)F)c(F)c2)n1 [compound 373, 6-(6-fluoro-2-methyl-1H-imidazo[4,5-b]pyridin-1-yl)-N-[3-fluoro-4-(trifluoromethyl)phenyl]pyrazin-2-amine]	10 to 100
CCc1nc2ncc(F)cc2n1-c1cncc(Nc2ccc(C(F)(F)F)c(F)c2)n1 [compound 374, 6-(2-ethyl-6-fluoro-1H-imidazo[4,5-b]pyridin-1-yl)-N-[3-fluoro-4-(trifluoromethyl)phenyl]pyrazin-2-amine]	10 to 100
COc1ccc2nc(C)c(-c3cncc(Nc4ccc(C(F)(F)F)cc4)n3)n2c1 [compound 376, 6-(6-methoxy-2-methylimidazo[1,2-a]pyridin-3-yl)-N-[4-(trifluoromethyl)phenyl]pyrazin-2-amine]	10 to 100
COc1ccc2nc(C)c(-c3cc(C#N)cc(Nc4ccc(OC(F)(F)F)cc4)n3)n2c1 [compound 380, 2-(6-methoxy-2-methylimidazo[1,2-a]pyridin-3-yl)-6-{[4-(trifluoromethoxy)phenyl]amino}pyridine-4-carbonitrile]	10 to 100
N#Cc1cc(Nc2ccc(C(F)(F)F)cc2)nc(-c2c(CO)nc3ccc(F)cn23)c1 [compound 383, 2-[6-fluoro-2-(hydroxymethyl)imidazo[1,2-a]pyridin-3-yl]-6-{[4-(trifluoromethyl)phenyl]amino}pyridine-4-carbonitrile]	10 to 100
FC(F)(F)c1ccc(Nc2cncc(-c3ccnc4cc(Cl)ccc34)n2)cc1 [compound 385, 6-(7-chloroquinolin-4-yl)-N-[4-(trifluoromethyl)phenyl]pyrazin-2-amine]	100 to 3000
Cc1cc2nc(C)n(-c3cncc(Nc4ccc(OC(F)(F)F)cc4)n3)c2cc1C [compound 387, N-[4-(trifluoromethoxy)phenyl]-6-(2,5,6-trimethyl-1H-benzimidazol-1-yl)pyrazin-2-amine]	100 to 3000
Cc1nc2ccc(Br)cc2n1-c1cncc(Nc2ccc(C(F)(F)F)cc2)n1 [compound 388, 6-(6-bromo-2-methyl-1H-benzimidazol-1-yl)-N-[4-(trifluoromethyl)phenyl]pyrazin-2-amine]	10 to 100
Cc1nc2ccccc2n1-c1cncc(Nc2ccc(C(F)(F)F)c(Cl)c2)n1 [compound 390, N-[3-chloro-4-(trifluoromethyl)phenyl]-6-(2-methyl-1H-benzimidazol-1-yl)pyrazin-2-amine]	10 to 100

Next, values leading:

EC50 [nM]	Compound
1 to 10	CCc1nn(C)c(CC)c1-c1cncc(Nc2ccc(OC(F)F)cc2)n1 [compound 333, 6-(3,5-diethyl-1-methyl-1H-pyrazol-4-yl)-N-[4-(difluoromethoxy)phenyl]pyrazin-2-amine]
100 to 3000	Cc1nc(Br)c(C)n1-c1cncc(Nc2ccc(C(F)(F)F)cc2)n1 [compound 341, 6-(4-bromo-2,5-dimethyl-1H-imidazol-1-yl)-N-[4-(trifluoromethyl)phenyl]pyrazin-2-amine]
10 to 100	Cc1nc(C)n(-c2cncc(Nc3ccc(C(F)(F)F)cc3)n2)c1C [compound 342, N-[4-(trifluoromethyl)phenyl]-6-(2,4,5-trimethyl-1H-imidazol-1-yl)pyrazin-2-amine]
1 to 10	Cc1ccc2nc(C)n(-c3cncc(Nc4ccc(C(F)(F)F)cc4)n3)c2c1 [compound 343, 6-(2,6-dimethyl-1H-benzimidazol-1-yl)-N-[4-(trifluoromethyl)phenyl]pyrazin-2-amine]
100 to 3000	Cc1nc2cc(Cl)ccc2n1-c1cc(C#N)cc(Nc2ccc(C(F)(F)F)cc2)n1 [compound 344, 2-(5-chloro-2-methyl-1H-benzimidazol-1-yl)-6-{[4-(trifluoromethyl)phenyl]amino}pyridine-4-carbonitrile]
10 to 100	COc1c(F)cc(Nc2cc(C#N)cc(-c3c(C4CC4)nc4ccc(F)cn34)n2)cc1F [compound 351, 2-(2-cyclopropyl-6-fluoroimidazo[1,2-a]pyridin-3-yl)-6-[(3,5-difluoro-4-methoxyphenyl)amino}pyridine-4-carbonitrile]
100 to 3000	Cc1cc(-c2cncc(Nc3ccc(C(F)(F)F)cc3)n2)ccn1 [compound 353, 6-(2-methylpyridin-4-yl)-N-[4-(trifluoromethyl)phenyl]pyrazin-2-amine]
100 to 3000	FC(F)(F)c1ccc(Nc2cncc(-c3ccnc(-c4ccnc(Cl)c4)c3)n2)cc1 [compound 354, 6-(2′-chloro-2,4′-bipyridin-4-yl)-N-[4-(trifluoromethyl)phenyl]pyrazin-2-amine]
10 to 100	Cc1nc2ncccc2n1-c1cncc(NC2=CCC(F)(C(F)(F)F)C=C2)n1 (centres unmarked) [compound 360, N-[4-fluoro-4-(trifluoromethyl)phenyl]-6-(2-methyl-1H-imidazo[4,5-b]pyridin-1-yl)pyrazin-2-amine]
100 to 3000	C=CCN1CCc2c(nc(C)n2-c2cncc(Nc3ccc(C(F)(F)F)cc3)n2)C1 [compound 375]
10 to 100	COc1ccc2nc(C)c(-c3cncc(Nc4ccc(OC(F)(F)F)cc4)n3)n2c1 [compound 377, 6-(6-methoxy-2-methylimidazo[1,2-a]pyridin-3-yl)-N-[4-(trifluoromethoxy)phenyl]pyrazin-2-amine]
10 to 100	Cc1nc2ccc(O)cn2c1-c1cncc(Nc2ccc(C(F)(F)F)cc2)n1 [compound 378, 2-methyl-3-(6-{[4-(trifluoromethyl)phenyl]amino}pyrazin-2-yl)imidazo[1,2-a]pyridin-6-ol]
10 to 100	COc1ccc2nc(C)c(-c3cc(C#N)cc(Nc4ccc(C(F)(F)F)cc4)n3)n2c1 [compound 379, 2-(6-methoxy-2-methylimidazo[1,2-a]pyridin-3-yl)-6-{[4-(trifluoromethyl)phenyl]amino}pyridine-4-carbonitrile]
10 to 100	Cc1nc2ccc(O)cn2c1-c1cc(C#N)cc(Nc2ccc(C(F)(F)F)cc2)n1 [compound 381, 2-(6-hydroxy-2-methylimidazo[1,2-a]pyridin-3-yl)-6-{[4-(trifluoromethyl)phenyl]amino}pyridine-4-carbonitrile]
100 to 3000	FC(F)(F)c1ccc(Nc2cncc(-c3ccnc4ccccc34)n2)cc1 [compound 384, 6-(quinolin-4-yl)-N-[4-(trifluoromethyl)phenyl]pyrazin-2-amine]
100 to 3000	Cc1cc2nc(C)n(-c3cncc(Nc4ccc(C(F)(F)F)cc4)n3)c2cc1C [compound 386, N-[4-(trifluoromethyl)phenyl]-6-(2,5,6-trimethyl-1H-benzimidazol-1-yl)pyrazin-2-amine]
